Measurements reported in the supplement of paper PMC4862054.

Assays:
Assay in all cases: normalised response (% of control), CellTox Green; higher = less cell death (100 = DMSO, 0 = benzethonium chloride kill control)
Conditions in all cases: incubation time: 72 h
[1] = test system: CAL-85-1
Summary of the method: (§1)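 After 72 h with compound in 384-well plates, breast cancer cell lines seeded as 20 µl suspension were read for CellTox Green fluorescence at 485/520 nm. CellTiter-Glo luminescence was then read after 10 min at room temperature. Compound was present at 5 concentrations in 10-fold steps over a 10,000-fold range set per compound, and plates were normalised to 0.1 % DMSO (100) and a positive kill control (0). Values are normalised signals, each at a single concentration.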

[2] = test system: CAL-120
Summary of the method: as §1

[3] = test system: MDA-MB-453
Summary of the method: as §1

[4] = test system: MDA-MB-231
Summary of the method: as §1

[5] = test system: MDA-MB-436
Summary of the method: as §1

[6] = test system: MFM-223
Summary of the method: as §1

[7] = test system: HCC1599
Summary of the method: as §1

[8] = test system: MDA-MB-468
Summary of the method: as §1

[9] = test system: DU-4475
Summary of the method: as §1

[10] = test system: HCC1937
Summary of the method: as §1

[11] = test system: HDQ-P1
Summary of the method: as §1

[12] = test system: Hs578T
Summary of the method: as §1

[13] = test system: HCC1143
Summary of the method: as §1

[14] = test system: MCF-10A
Summary of the method: as §1

[15] = test system: BT-549
Summary of the method: as §1

[16] = test system: CAL-51
Summary of the method: as §1

[17] = test system: BT-474
Summary of the method: as §1

[18] = test system: CAL-148
Summary of the method: as §1

| SMILES | normalised response [1] | normalised response [2] | normalised response [3] | normalised response [4] | normalised response [5] | normalised response [6] | normalised response [7] | normalised response [8] | normalised response [9] | normalised response [10] | normalised response [11] | normalised response [12] | normalised response [13] | normalised response [14] | normalised response [15] | normalised response [16] | normalised response [17] | normalised response [18] |
| --- | --- | --- | --- | --- | --- | --- | --- | --- | --- | --- | --- | --- | --- | --- | --- | --- | --- | --- |
| O=C(Nc1ccncc1)C(=O)c1cn(Cc2ccc(Cl)cc2)c2ccccc12 [Indibulin] (10000 nM) | 16.7% | 85.8% | 105% | 46.3% | 93.6% | 72.9% | 105% | 63.6% | 106% | 99% | 69.6% | 76.3% | 121% | 84% | 95.4% | -2.59% | 81.4% | 65.3% |
| NC(=O)c1ccc(I)c([N+](=O)[O-])c1 [Iniparib] (1000 nM) | 101% | 93.3% | 88.2% | 98.8% | 93.9% | 96.7% | 89% | 125% | 95.2% | 63.7% | 103% | 56.3% | 101% | 81.6% | 121% | 90.7% | 94.6% | 82.5% |
| CCc1c2c(nc3ccc(OC(=O)N4CCC(N5CCCCC5)CC4)cc13)-c1cc3c(c(=O)n1C2)COC(=O)[C@]3(O)CC [Irinotecan] (10000 nM) | 64.6% | 74.3% | 109% | 106% | 97.1% | 103% | 87% | 119% | 84.8% | 55.9% | 74.4% | 104% | 95.2% | 100% | 107% | -10.4% | 102% | 44.4% |
| Oc1ccc2c(c1)CC[C@H](c1ccccc1)[C@@H]2c1ccc(OCCN2CCCC2)cc1 [Lasofoxifene] (1000 nM) | 69.3% | 99.7% | 104% | 119% | 109% | 95.5% | 111% | 178% | 102% | 72.2% | 86.1% | 68.7% | 112% | 67.1% | 118% | 105% | 99.8% | 103% |
| Cc1ccc(NC(=O)c2ccc(CN3CCN(C)CC3)cc2)cc1Nc1nc(-c2cccnc2)cs1 [Masitinib] (1000 nM) | 98.9% | 99.2% | 102% | 114% | 68.7% | 89.7% | 101% | 177% | 100% | 113% | 89.1% | 97.8% | 99.5% | 103% | 110% | 103% | 102% | 97.3% |
| Cc1ccc(NC(=O)c2ccc(CN3CCN(C)CC3)cc2)cc1Nc1nc(-c2cccnc2)cs1 [Masitinib] (10000 nM) | 76.8% | 78.5% | 87.1% | -12.8% | 31.8% | 96.5% | 67.6% | 37% | 100% | 88.7% | 106% | 70.7% | 96.5% | 90.8% | 109% | 74.2% | 53.3% | 101% |
| O=C(Nc1cccnc1)N1CCC(Cc2cccc(Oc3ccc(C(F)(F)F)cn3)c2)CC1 [PF-3845] (1000 nM) | 106% | 106% | 108% | 116% | 108% | 102% | 108% | 132% | 108% | 124% | 70.8% | 115% | 97.7% | 115% | 107% | 117% | 102% | 107% |
| O=C(Nc1cccnc1)N1CCC(Cc2cccc(Oc3ccc(C(F)(F)F)cn3)c2)CC1 [PF-3845] (10000 nM) | 69.5% | 97.4% | 63.6% | 108% | 101% | 78.1% | 95.7% | 172% | 101% | 76.2% | 52.3% | 90.3% | 126% | 103% | 111% | 108% | 76.7% | 103% |
| Cc1[nH]c2ccccc2c1CCNCc1ccc(/C=C/C(=O)NO)cc1 [Panobinostat] (100 nM) | 10.4% | 28.7% | 88.3% | -11.6% | 10.6% | 71.4% | 75% | 82.5% | 62.1% | -55.9% | 90% | -15.2% | 71.8% | 99.6% | 105% | -3.76% | 36.8% | -4.89% |
| Cc1[nH]c2ccccc2c1CCNCc1ccc(/C=C/C(=O)NO)cc1 [Panobinostat] (1000 nM) | -26% | -30.8% | 75.5% | -36.7% | 86.6% | 32.5% | 53.1% | -0.17% | 68.2% | -17.6% | 39.2% | -12.8% | 47.3% | 34.9% | 69.6% | -9.56% | 19.9% | 4.38% |
| COCC1(CO)C(=O)C2CCN1CC2 (configuration not stated) [Prima-1 Met] (1000 nM) | 102% | 99.5% | 107% | 98.3% | 71% | 89.9% | 109% | 103% | 104% | 120% | 101% | 108% | 114% | 101% | 112% | 111% | 104% | 71.1% |
| CNC(=O)c1cc(Oc2ccc(NC(=O)Nc3ccc(Cl)c(C(F)(F)F)c3)c(F)c2)ccn1 [Regorafenib] (10000 nM) | 83.8% | 97.2% | 98.3% | 94.3% | 113% | 97.3% | 106% | 152% | 92.5% | 10.5% | 111% | 109% | 120% | 94.5% | 109% | 108% | 82% | 85.1% |
| CO[C@H]1C[C@@H]2CC[C@@H](C)[C@@](O)(O2)C(=O)C(=O)N2CCCC[C@H]2C(=O)O[C@H]([C@H](C)C[C@@H]2CC[C@@H](OP(C)(C)=O)[C@H](OC)C2)CC(=O)[C@H](C)/C=C(\C)[C@@H](O)[C@@H](OC)C(=O)[C@H](C)C[C@H](C)/C=C/C=C/C=C/1C [Ridaforolimus] (100 nM) | 92.7% | 106% | 104% | 51.6% | 53.1% | 102% | 89.3% | 196% | 100% | 103% | 70.1% | 116% | 121% | 97.3% | 125% | 102% | 100% | 85.5% |
| c1ccc2c(CCNc3ccc(Nc4ccncc4)cc3)c[nH]c2c1 [Serdemetan] (10000 nM) | 94% | 88.8% | 95.2% | 46.1% | 99.5% | 38.8% | 82.8% | 124% | 68.3% | 102% | 88.7% | 118% | 89.7% | 89.8% | 86.7% | 69.5% | 56.7% | 26% |
| CC(C)C[C@@H](C(=O)N[C@H](C(=O)OC1CCCC1)c1ccccc1)[C@H](O)C(=O)NO [Tosedostat] (1000 nM) | 1.91% | 39.9% | 95.1% | 14.7% | 75.5% | 31.9% | 90.8% | 33.4% | 101% | 90.1% | 57.9% | 89% | 105% | 80.4% | 70.1% | 52.9% | 91.7% | 84.1% |
| CC(C)C[C@@H](C(=O)N[C@H](C(=O)OC1CCCC1)c1ccccc1)[C@H](O)C(=O)NO [Tosedostat] (10000 nM) | -30.8% | 36.2% | 86.1% | -8.96% | 70.6% | 98.5% | 95.4% | -9% | 97.8% | 76.8% | 26% | 89.8% | 30.3% | 86.8% | -46.2% | 48.5% | 66.9% | 54.2% |
| COc1cc2/c(=N/c3ccc(Br)cc3F)nc[nH]c2cc1OCC1CCN(C)CC1 [Vandetanib] (1000 nM) | 117% | 56.3% | 96.7% | 80.5% | 84.6% | 95% | 106% | 128% | 96.9% | 84.1% | 40.1% | 105% | 85.7% | 84% | 114% | 96.5% | 96.7% | 99.8% |
| COCC[n+]1c2c(n(Cc3cnccn3)c1C)C(=O)c1ccccc1C2=O [YM155] (1000 nM) | -94.7% | -14.7% | 42.2% | -31.1% | -1.05% | 55.1% | 51.1% | -55.5% | 77% | 9.52% | -26.1% | 92.9% | 49.3% | -47.8% | 14.8% | 4.79% | -1.55% | -7.66% |
| COCC[n+]1c2c(n(Cc3cnccn3)c1C)C(=O)c1ccccc1C2=O [YM155] (10000 nM) | -73.8% | -11.6% | 28.4% | 29.1% | 32.2% | 25.7% | 55.7% | -110% | 68.1% | 1.09% | 25.1% | 18.1% | 62.8% | -38.3% | 8.26% | 8.9% | -15% | 2.48% |
